The supplement of paper PMC10307832

Tests used:
Assay in all cases: relative viability (nuclei count vs DMSO), 5 days (fraction); higher = more cells survive
[1] = system: HCC-15
In short: (§1)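 Lung cancer cell lines, seeded in 1536-well plates, were treated the following day by pin tool with a single drug or with five library-drug doses (not always all listed) in √10 steps on top of a fixed anchor-drug dose. Cells were fixed and nuclei stained in one step after 5 days, and nuclei were counted. Relative viability is the nuclei count for treated wells divided by that for vehicle wells, reported as medians of duplicate plates.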

[2] = system: EBC-1
In short: as §1

[3] = system: NCI-H650
In short: as §1

[4] = system: SK-LU-1
In short: as §1

[5] = system: Calu-6
In short: as §1

[6] = system: NCI-H1299
In short: as §1

[7] = system: NCI-H1915
In short: as §1

[8] = system: A549
In short: as §1

[9] = system: NCI-H1703
In short: as §1

[10] = system: IA-LM
In short: as §1

[11] = system: NCI-H1975
In short: as §1

[12] = system: NCI-H1793
In short: as §1

[13] = system: HARA
In short: as §1

COCC1(CO)C(=O)C2CCN1CC2 (configuration not stated) [PRIMA-1MET] + C[C@]1(O)C[C@@H](c2nc(-c3ccc4ccc(-c5ccccc5)nc4c3)c3c(N)nccn32)C1 [Linsitinib] (partner 1 µM)
relative viability ([1]; first compound 0.2 µM): 0.893
relative viability ([1]; first compound 0.6325 µM): 0.544
relative viability ([1]; first compound 2 µM): 0.78
relative viability ([1]; first compound 6.325 µM): 0.903
relative viability ([1]; first compound 20 µM): 0.722
relative viability ([2]; first compound 0.2 µM): 1.02
relative viability ([2]; first compound 0.6325 µM): 0.972
relative viability ([2]; first compound 2 µM): 0.758
relative viability ([2]; first compound 6.325 µM): 0.9
relative viability ([2]; first compound 20 µM): 0.623
relative viability ([3]; first compound 0.2 µM): 1.13
relative viability ([3]; first compound 2 µM): 0.859
relative viability ([3]; first compound 6.325 µM): 0.674
relative viability ([3]; first compound 20 µM): 0.107
relative viability ([4]; first compound 0.2 µM): 1.24
relative viability ([4]; first compound 0.6325 µM): 1.03
relative viability ([4]; first compound 2 µM): 1.14
relative viability ([4]; first compound 6.325 µM): 1.06
relative viability ([4]; first compound 20 µM): 0.458
relative viability ([5]; first compound 0.2 µM): 1.02
relative viability ([5]; first compound 0.6325 µM): 0.885
relative viability ([5]; first compound 2 µM): 0.732
relative viability ([5]; first compound 6.325 µM): 0.957
relative viability ([5]; first compound 20 µM): 0.687
relative viability ([6]; first compound 0.2 µM): 1.15
relative viability ([6]; first compound 0.6325 µM): 0.852
relative viability ([6]; first compound 2 µM): 1.01
relative viability ([6]; first compound 6.325 µM): 1.05
relative viability ([6]; first compound 20 µM): 0.917
relative viability ([7]; first compound 0.2 µM): 1.26
relative viability ([7]; first compound 0.6325 µM): 0.933
relative viability ([7]; first compound 2 µM): 1.03
relative viability ([7]; first compound 6.325 µM): 1.11
relative viability ([7]; first compound 20 µM): 1.08
relative viability ([8]; first compound 0.2 µM): 0.708
relative viability ([8]; first compound 0.6325 µM): 0.559
relative viability ([8]; first compound 2 µM): 0.281
relative viability ([8]; first compound 6.325 µM): 0.598
relative viability ([8]; first compound 20 µM): 0.403
relative viability ([9]; first compound 0.2 µM): 0.25
relative viability ([9]; first compound 6.325 µM): 1.29
relative viability ([9]; first compound 20 µM): 0.0482
relative viability ([10]; first compound 0.2 µM): 0.483
relative viability ([10]; first compound 0.6325 µM): 0.661
relative viability ([10]; first compound 2 µM): 0.358
relative viability ([10]; first compound 6.325 µM): 0.713
relative viability ([10]; first compound 20 µM): 0.573
relative viability ([11]; first compound 0.2 µM): 1.14
relative viability ([11]; first compound 0.6325 µM): 0.838
relative viability ([11]; first compound 2 µM): 0.875
relative viability ([11]; first compound 6.325 µM): 1
relative viability ([11]; first compound 20 µM): 0.826
relative viability ([12]; first compound 0.2 µM): 0.878
relative viability ([12]; first compound 0.6325 µM): 0.777
relative viability ([12]; first compound 6.325 µM): 1.04
relative viability ([12]; first compound 20 µM): 0.581
relative viability ([13]; first compound 0.2 µM): 1.16
relative viability ([13]; first compound 0.6325 µM): 0.265
relative viability ([13]; first compound 6.325 µM): 0.903
relative viability ([13]; first compound 20 µM): 0.874

COCC1(CO)C(=O)C2CCN1CC2 (configuration not stated) [PRIMA-1MET] + Cc1nc(NC(=O)N2CCC[C@H]2C(N)=O)sc1-c1ccnc(C(C)(C)C(F)(F)F)c1 [Alpelisib] (partner 2 µM)
relative viability ([1]; first compound 0.2 µM): 1.01
relative viability ([1]; first compound 0.6325 µM): 0.708
relative viability ([1]; first compound 2 µM): 0.81
relative viability ([1]; first compound 6.325 µM): 0.999
relative viability ([1]; first compound 20 µM): 0.643
relative viability ([2]; first compound 0.2 µM): 0.87
relative viability ([2]; first compound 0.6325 µM): 0.921
relative viability ([2]; first compound 2 µM): 0.83
relative viability ([2]; first compound 6.325 µM): 0.757
relative viability ([2]; first compound 20 µM): 0.666
relative viability ([3]; first compound 0.2 µM): 1.38
relative viability ([3]; first compound 2 µM): 1.08
relative viability ([3]; first compound 6.325 µM): 1.02
relative viability ([3]; first compound 20 µM): 0.099
relative viability ([4]; first compound 0.2 µM): 1.11
relative viability ([4]; first compound 0.6325 µM): 0.918
relative viability ([4]; first compound 2 µM): 1.04
relative viability ([4]; first compound 6.325 µM): 0.99
relative viability ([4]; first compound 20 µM): 0.109
relative viability ([5]; first compound 0.2 µM): 1.02
relative viability ([5]; first compound 0.6325 µM): 0.941
relative viability ([5]; first compound 2 µM): 0.859
relative viability ([5]; first compound 6.325 µM): 1
relative viability ([5]; first compound 20 µM): 0.856
relative viability ([6]; first compound 0.2 µM): 1.07
relative viability ([6]; first compound 0.6325 µM): 1.08
relative viability ([6]; first compound 2 µM): 1.08
relative viability ([6]; first compound 6.325 µM): 1.03
relative viability ([6]; first compound 20 µM): 0.976
relative viability ([7]; first compound 0.2 µM): 1.15
relative viability ([7]; first compound 0.6325 µM): 0.861
relative viability ([7]; first compound 2 µM): 0.853
relative viability ([7]; first compound 6.325 µM): 1.01
relative viability ([7]; first compound 20 µM): 0.974
relative viability ([8]; first compound 0.2 µM): 0.728
relative viability ([8]; first compound 0.6325 µM): 0.803
relative viability ([8]; first compound 2 µM): 0.861
relative viability ([8]; first compound 6.325 µM): 0.881
relative viability ([8]; first compound 20 µM): 0.593
relative viability ([9]; first compound 0.2 µM): 0.393
relative viability ([9]; first compound 0.6325 µM): 0.37
relative viability ([9]; first compound 2 µM): 0.318
relative viability ([9]; first compound 6.325 µM): 0.436
relative viability ([9]; first compound 20 µM): 0.0451
relative viability ([10]; first compound 0.2 µM): 0.695
relative viability ([10]; first compound 0.6325 µM): 0.863
relative viability ([10]; first compound 2 µM): 0.726
relative viability ([10]; first compound 6.325 µM): 1
relative viability ([10]; first compound 20 µM): 0.813
relative viability ([11]; first compound 0.2 µM): 0.822
relative viability ([11]; first compound 0.6325 µM): 0.603
relative viability ([11]; first compound 2 µM): 0.694
relative viability ([11]; first compound 6.325 µM): 0.68
relative viability ([11]; first compound 20 µM): 0.574
relative viability ([12]; first compound 0.2 µM): 0.953
relative viability ([12]; first compound 0.6325 µM): 0.676
relative viability ([12]; first compound 6.325 µM): 0.736
relative viability ([12]; first compound 20 µM): 0.707
relative viability ([13]; first compound 0.2 µM): 0.97
relative viability ([13]; first compound 0.6325 µM): 0.603
relative viability ([13]; first compound 6.325 µM): 0.836
relative viability ([13]; first compound 20 µM): 0.954
